Some test systems named below: NCI-H226 lung; NCI-H460 lung; NCI-H522 lung; SK-MEL-5 melanoma; CAKI-1 renal; HT29 colon; RXF 393 renal; KM12 colon; OVCAR-8 ovarian; MOLT-4 leukemia.
Common to all, as to experiment: inhibition of tumour cell growth, NCI panel, 48 h

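96-well plates; 48 h exposure; 5 concentrations. Endpoints by linear interpolation between flanking doses. Not reached: highest tested concentration assigned. Abbreviation: GI50, concentration required for 50% inhibition of growth. At the TGI there is no net growth.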

For the molecule `NCCCNCCCCN1CC1`, the TGI in the test on NCI-H226 lung was greater than 20.9 µM; with NCI-H460 lung it was greater than 100 µM; in the test on NCI-H522 lung, 11.4 µM; in the test with SK-MEL-5 melanoma, 11.7 µM; with CAKI-1 renal it was 0.407 µM; in the test on HT29 colon, greater than 37.5 µM. Moreover, the values for the TGI in the test on RXF 393 renal and in the test with KM12 colon were 7.83 µM and greater than 30.7 µM, respectively.

Take `CCOC(=O)C(NC(=O)OC(C)(C)C)C(=O)OCC`: the TGI in the test with NCI-H460 lung, in the test on NCI-H522 lung, in the test on SK-MEL-5 melanoma, in the test on CAKI-1 renal, in the test on OVCAR-8 ovarian and in the test with HT29 colon was greater than 100 µM in each case. In addition, the TGI with MOLT-4 leukemia, in the test on RXF 393 renal and in the test with KM12 colon was greater than 100 µM each time.

Turning to `COc1cc(Br)c(CC2C3=C(CCN2C(=O)C2CCC2)CC(=O)CC3)cc1O` (centres undefined), the TGI in the test on NCI-H226 lung is greater than 100 µM; with NCI-H460 lung, greater than 100 µM; with NCI-H522 lung it was 34.3 µM; with SK-MEL-5 melanoma, greater than 100 µM; in the test on OVCAR-8 ovarian, greater than 100 µM; in the test with HT29 colon, 71.6 µM. Also, the TGI was greater than 100 µM in the test on MOLT-4 leukemia and 73.3 µM in the test on KM12 colon.

Regarding `Cc1nc2ccccc2c(/C=C/c2ccc(Cl)cc2)c1C(=O)/C=C/c1ccccc1`, the GI50 was 1.58 µM in the test with NCI-H226 lung; 1.39 µM in the test on NCI-H460 lung; 1.61 µM in the test on SK-MEL-5 melanoma; 1.58 µM in the test on HT29 colon; 0.884 µM with MOLT-4 leukemia; 1.6 µM in the test on RXF 393 renal. Moreover, in the test on KM12 colon, the GI50 is 1.56 µM. Further, the TGI in the test with NCI-H226 lung is 3.22 µM; in the test on NCI-H460 lung, 3.14 µM; in the test on SK-MEL-5 melanoma, 2.96 µM; in the test with HT29 colon it was greater than 100 µM; in the test with MOLT-4 leukemia, 4.88 µM; in the test with RXF 393 renal, 2.98 µM. Also, in the test on KM12 colon, the TGI amounted to 3.04 µM.

As for `Cc1ccc(CCC(=O)C(=O)O)s1`, the TGI with NCI-H460 lung is greater than 100 µM; with NCI-H522 lung it was greater than 100 µM; with SK-MEL-5 melanoma, greater than 100 µM; with CAKI-1 renal, 90.3 µM; in the test on OVCAR-8 ovarian, greater than 100 µM; with HT29 colon, greater than 100 µM. Besides, the TGI with MOLT-4 leukemia and with KM12 colon was greater than 100 µM in each case.

As to `CNc1ncnc2c1cnn2Cc1cn(COCC(O)CO)nn1` (centres undefined), the TGI in the test on NCI-H226 lung, in the test with SK-MEL-5 melanoma, with CAKI-1 renal, in the test with OVCAR-8 ovarian, in the test with HT29 colon and in the test on KM12 colon was greater than 100 µM in each case.

Regarding `CC(=O)Nc1ccccc1NC1CC(C)N(c2ccccc2)N1C(C)=O` (centres undefined), the TGI in the test on SK-MEL-5 melanoma, in the test on CAKI-1 renal, in the test with OVCAR-8 ovarian, with HT29 colon, in the test on MOLT-4 leukemia and in the test with RXF 393 renal was greater than 10 µM in each case. In the test on KM12 colon, this molecule showed a TGI greater than 10 µM.

In the case of `CC(C)(C)OC(=O)NCC(=O)N1CCN(C(=O)CNC(=O)OC(C)(C)C)CC1`, the TGI in the test with NCI-H226 lung is greater than 100 µM; in the test on NCI-H522 lung, 7.12 µM; with SK-MEL-5 melanoma, greater than 100 µM; in the test with CAKI-1 renal, greater than 100 µM; in the test on OVCAR-8 ovarian, greater than 100 µM; in the test on HT29 colon, greater than 100 µM. Besides, the TGI with MOLT-4 leukemia and with KM12 colon was greater than 100 µM throughout.

For the molecule `[N-]=[N+]=Nc1c([N+](=O)[O-])c(=O)n2c3c(cccc13)CCC2`, the TGI in the test on NCI-H226 lung is 51.9 µM; in the test with NCI-H460 lung it was 35.1 µM; with NCI-H522 lung, 4.58 µM; in the test on SK-MEL-5 melanoma it was 30.3 µM; with CAKI-1 renal, 27.9 µM; in the test with OVCAR-8 ovarian it was 35.1 µM. Moreover, the TGI was 36.1 µM in the test with HT29 colon, 5.58 µM in the test with MOLT-4 leukemia and 34.8 µM in the test with KM12 colon.

Regarding `CSc1scc2c1/C(=N/NC(N)=O)CCC2`, the TGI with NCI-H226 lung, in the test on NCI-H460 lung, in the test with SK-MEL-5 melanoma, in the test on CAKI-1 renal, in the test with OVCAR-8 ovarian and in the test with HT29 colon was greater than 100 µM each time. In addition, the TGI with MOLT-4 leukemia and with KM12 colon was greater than 100 µM in each case.

With `CCN1CCC(O)(/C=C/c2ccc(OC)cc2)C(C(=O)/C=C/c2ccc(OC)cc2)C1` (centres undefined), the TGI in the test on NCI-H226 lung was found to be 29.7 µM; in the test on NCI-H460 lung it was 27.6 µM; with NCI-H522 lung, 26.1 µM; in the test on HT29 colon, 25.4 µM; in the test with MOLT-4 leukemia, 12.4 µM; with RXF 393 renal it was 11.9 µM. Besides, in the test on KM12 colon, the TGI turned out to be 19.9 µM.

On to `COc1ccc2nc3cc(Cl)ccc3c(NCCNc3c4ccc(Cl)cc4nc4ccc(OC)cc34)c2c1`, for which the GI50 with NCI-H522 lung is 1.72 µM; in the test on SK-MEL-5 melanoma, 1.81 µM; in the test with CAKI-1 renal, 1.72 µM; in the test on RXF 393 renal it was 1.55 µM. For the same molecule, the TGI amounted to 3.23 µM in the test with NCI-H522 lung, 3.27 µM in the test with SK-MEL-5 melanoma, 3.18 µM in the test on CAKI-1 renal and 2.92 µM with RXF 393 renal.

On to `CCCC(=O)[O-].N.N.N.N.N.[Co+3].[O-][Cl+3]([O-])([O-])[O-]`, for which the TGI in the test on NCI-H460 lung, with NCI-H522 lung, in the test on SK-MEL-5 melanoma, in the test on OVCAR-8 ovarian, in the test with HT29 colon and in the test with MOLT-4 leukemia was greater than 100 µM throughout. Besides, in the test with KM12 colon, the TGI was greater than 100 µM.

Turning to `NC(N)=NCCCC(NC(=O)OCCCCn1ccc(N)nc1=O)C(=O)O` (centres undefined), the TGI in the test with NCI-H226 lung, in the test on NCI-H460 lung, with CAKI-1 renal, in the test on HT29 colon, with MOLT-4 leukemia and in the test with RXF 393 renal was greater than 100 µM throughout. Besides, in the test with KM12 colon, the TGI is greater than 100 µM.

Regarding `[N-]=[N+]=C(C(=O)N1CCCC1=O)S(=O)(=O)c1ccccc1`, the TGI in the test with NCI-H460 lung, with NCI-H522 lung, in the test with SK-MEL-5 melanoma, in the test on OVCAR-8 ovarian, in the test with MOLT-4 leukemia and in the test with RXF 393 renal was greater than 100 µM throughout. In the test on KM12 colon, this molecule displayed a TGI greater than 100 µM.

Turning to `CCOC(=O)N1CCC(=C2c3ccc(Cl)cc3CCc3cccnc32)CC1`, the TGI with NCI-H226 lung is 40.6 µM; with NCI-H460 lung it was 18.9 µM; in the test with SK-MEL-5 melanoma, 9.22 µM; in the test with OVCAR-8 ovarian it was 32.5 µM; in the test with HT29 colon it was 16.9 µM; in the test with MOLT-4 leukemia it was 33.3 µM. Moreover, the TGI in the test with RXF 393 renal turned out to be 22.7 µM; with KM12 colon, 24.3 µM.

For the origin of these results see PubChem BioAssay (NCI).
